Active and inactive are the calls of the source. The calls are words filed in the database; no cut-off is given here.
How the values were obtained:
[1] = system: Rattus norvegicus; assay: Presynaptic agonist activity at 5HT1A receptor in Rattus norvegicus Wistar (rat) assessed as change in rectal temperature at 10 mg/kg, ip measured after 90 min (reference value: -0.2 +/- 0.1 degC); format: functional, organism-based; set-up: dose 10 mg/kg
[2] = system: Rattus norvegicus; assay: Presynaptic agonist activity at 5HT1A receptor in Rattus norvegicus Wistar (rat) assessed as change in rectal temperature at 20 mg/kg, ip measured after 120 min (reference value: 0.0 +/- 0.1 degC); format: functional, organism-based; set-up: dose 20 mg/kg
[3] = system: Mus musculus; assay: Binding affinity to 5HT2A receptor in ip dosed Mus musculus Swiss albino (mouse) assessed as effect on +/-DOI-induced head twitching administered 60 min prior to +/-DOI-challenge measured for 20 min; format: functional, organism-based
[4] = system: Rattus norvegicus; assay: Presynaptic agonist activity at 5HT1A receptor in Rattus norvegicus Wistar (rat) assessed as change in rectal temperature at 20 mg/kg, ip measured after 60 min (reference value: 0.0 +/- 0.1 degC); format: functional, organism-based; set-up: dose 20 mg/kg
[5] = system: Mus musculus; assay: Neurotoxicity against Mus musculus Swiss albino (mouse) assessed as inability to maintain equilibrium on rod at 30 to 300 mg/kg, ip measured after 4 hr by rotarod test; format: toxicity, organism-based; set-up: dose 30-300 mg/kg, route intraperitoneal; details: in vivo
[6] = system: Rattus norvegicus; assay: Anticonvulsant activity in Rattus norvegicus Wistar (rat) assessed as reduction in maximal electroshock-induced seizures at 30 mg/kg, po measured after 4 hr; format: functional, organism-based; set-up: dose 30 mg/kg
[7] = system: Rattus norvegicus; assay: Presynaptic agonist activity at 5HT1A receptor in Rattus norvegicus Wistar (rat) assessed as change in rectal temperature at 10 mg/kg, ip measured after 120 min (reference value: 0.0 +/- 0.1 degC); format: functional, organism-based; set-up: dose 10 mg/kg
[8] = system: Rattus norvegicus; assay: Presynaptic agonist activity at 5HT1A receptor in Rattus norvegicus Wistar (rat) assessed as change in rectal temperature at 20 mg/kg, ip measured after 30 min (reference value: -0.1 +/- 0.1 degC); format: functional, organism-based; set-up: dose 20 mg/kg
[9] = system: Rattus norvegicus; assay: Postsynaptic antagonist activity at 5HT1A receptor in Rattus norvegicus Wistar (rat) assessed as inhibition of 8-OH-DPAT-induced lower lip retraction at 10 to 20 mg/kg, ip administered 45 min prior to 8-OH-DPAT-challenge measured after 15 min; format: functional, organism-based
[10] = system: Mus musculus; assay: Anticonvulsant activity in Mus musculus Swiss albino (mouse) assessed as reduction in maximal electroshock-induced seizure at 100 mg/kg, ip measured after 4 hr; format: functional, organism-based; set-up: dose 100 mg/kg
[11] = system: Rattus norvegicus; assay: Presynaptic agonist activity at 5HT1A receptor in Rattus norvegicus Wistar (rat) assessed as change in rectal temperature at 20 mg/kg, ip measured after 90 min (reference value: -0.2 +/- 0.1 degC); format: functional, organism-based; set-up: dose 20 mg/kg
[12] = system: Mus musculus; assay: Neurotoxicity against Mus musculus Swiss albino (mouse) assessed as inability to maintain equilibrium on rod at 30 to 300 mg/kg, ip measured after 0.5 hr by rotarod test; format: toxicity, organism-based; set-up: dose 30-300 mg/kg, route intraperitoneal; details: in vivo
[13] = system: Rattus norvegicus; assay: Presynaptic agonist activity at 5HT1A receptor in Rattus norvegicus Wistar (rat) assessed as change in rectal temperature at 10 mg/kg, ip measured after 30 min (reference value: -0.1 +/- 0.1 degC); format: functional, organism-based; set-up: dose 10 mg/kg
[14] = system: Rattus norvegicus; assay: Anticonvulsant activity in Rattus norvegicus Wistar (rat) assessed as reduction in maximal electroshock-induced seizures at 30 mg/kg, po measured after 0.5 hr; format: functional, organism-based; set-up: dose 30 mg/kg
[15] = system: Rattus norvegicus; assay: Neurotoxicity against Rattus norvegicus Wistar (rat) assessed as inability to maintain equilibrium on rod at 30 mg/kg, po measured after 4 hr by rotarod test; format: toxicity, organism-based; set-up: dose 30 mg/kg, route oral; details: in vivo
[16] = system: Rattus norvegicus; assay: Presynaptic agonist activity at 5HT1A receptor in Rattus norvegicus Wistar (rat) assessed as change in rectal temperature at 10 mg/kg, ip measured after 60 min (reference value: 0.0 +/- 0.1 degC); format: functional, organism-based; set-up: dose 10 mg/kg
[17] = system: Rattus norvegicus; assay: Neurotoxicity against Rattus norvegicus Wistar (rat) assessed as inability to maintain equilibrium on rod at 30 mg/kg, po measured after 0.5 hr by rotarod test; format: toxicity, organism-based; set-up: dose 30 mg/kg, route oral; details: in vivo
[18] = system: Mus musculus; assay: Anticonvulsant activity in Mus musculus Swiss albino (mouse) assessed as reduction in maximal electroshock-induced seizure at 30 to 300 mg/kg, ip measured after 0.5 hr; format: functional, organism-based
[19] = system: Mus musculus; assay: Anticonvulsant activity in Mus musculus Swiss albino (mouse) assessed as reduction in maximal electroshock-induced seizure at 30 mg/kg, ip measured after 4 hr; format: functional, organism-based; set-up: dose 30 mg/kg
[20] = system: Rattus norvegicus; assay: Postsynaptic agonist activity at 5HT1A receptor in Rattus norvegicus Wistar (rat) assessed as increase in lower lip retraction at 10 to 20 mg/kg, ip measured after 15 min; format: functional, organism-based
[21] = system: Mus musculus; assay: Anticonvulsant activity in Mus musculus Swiss albino (mouse) assessed as reduction in maximal electroshock-induced seizure at 30 to 300 mg/kg, ip measured after 4 hr; format: functional, organism-based
[22] = system: Mus musculus; assay: Anticonvulsant activity in Mus musculus Swiss albino (mouse) assessed as reduction in maximal electroshock-induced seizure at 100 mg/kg, ip measured after 0.5 hr; format: functional, organism-based; set-up: dose 100 mg/kg
[23] = system: Mus musculus; assay: Antagonist activity at 5HT2A receptor in ip dosed Mus musculus Swiss albino (mouse) assessed as inhibition of +/-DOI-induced head twitching administered 60 min prior to +/-DOI-challenge measured for 20 min; format: functional; details: read-out: ID50 (the source's name)
[24] = system: Mus musculus; assay: Neurotoxicity against Mus musculus Swiss albino (mouse) assessed as inability to maintain equilibrium on rod at 300 mg/kg, ip measured after 4 hr by rotarod test; format: toxicity, organism-based; set-up: dose 300 mg/kg, route intraperitoneal; details: in vivo
[25] = system: Mus musculus; assay: Anticonvulsant activity in Mus musculus Swiss albino (mouse) assessed as reduction in maximal electroshock-induced seizure at 300 mg/kg, ip measured after 4 hr; format: functional, organism-based; set-up: dose 300 mg/kg

SMILES	deltaT [1] [°C]	deltaT [2] [°C]	deltaT [4] [°C]	Activity [5]	Activity [6]	deltaT [7] [°C]	deltaT [8] [°C]	deltaT [11] [°C]	Activity [12]	deltaT [13] [°C]	Activity [14]	Activity [15]	deltaT [16] [°C]	Activity [17]	Activity [18]	Activity [21]	other results
O=C1OC(c2ccccc2)C(=O)N1CCN1CCN(c2ccc(F)cc2)CC1 (stereo not given)	-0.5	-1.4	-1.4	Non-toxic	inactive	-0.5	-1.5	-1.4	Non-toxic	-0.6	inactive	Non-toxic	-0.4	Non-toxic	inactive	–	Activity [3]: inactive; inhibition [9]: Active; Activity [10]: Active
O=C1NC(c2ccccc2)(c2ccccc2)C(=O)N1CCN1CCN(c2ccc(F)cc2)CC1	-0.7	-1.7	-1.6	Non-toxic	Active	-0.8	-1.7	-1.6	Non-toxic	-0.9	inactive	Non-toxic	-0.7	Non-toxic	inactive	–	Activity [3]: inactive; Activity [19]: Active; Activity [20]: Active
O=C1NC(c2ccccc2)(c2ccccc2)C(=O)N1CCNc1ccc(O)cc1	–	–	–	Non-toxic	–	–	–	–	Non-toxic	–	–	–	–	–	inactive	inactive	–
O=C1OC(c2ccccc2)C(=O)N1CCNc1ccc(Cl)cc1 (stereo not given)	-0.7	-1.3	-1.3	Non-toxic	Active	-0.5	-1.2	-1.5	Non-toxic	-0.2	Active	Non-toxic	-0.5	Non-toxic	–	–	inhibition [9]: Active; Activity [22]: Active; ED50 [23]: 8 mg/kg; Activity [19]: Active
O=C1NC(c2ccccc2)(c2ccccc2)C(=O)N1CCN1CCN(c2ccc(O)cc2)CC1	–	–	–	–	–	–	–	–	Non-toxic	–	–	–	–	–	inactive	–	Activity [24]: Toxic; Activity [25]: Active
O=C1OC(c2ccccc2)C(=O)N1CCN1CCN(c2ccc(Cl)cc2)CC1 (stereo not given)	–	–	–	Non-toxic	–	–	–	–	Non-toxic	–	–	–	–	–	inactive	inactive	–
O=C1OC(c2ccccc2)C(=O)N1CCN1CCN(c2ccccn2)CC1 (stereo not given)	–	–	–	Non-toxic	–	–	–	–	Non-toxic	–	–	–	–	–	inactive	inactive	–
O=C1OC(c2ccccc2)C(=O)N1CCNc1ccc(O)cc1 (stereo not given)	-0.7	-1.1	-1.2	Non-toxic	Active	-0.6	-1	-1.6	Non-toxic	-0.4	Active	Non-toxic	-0.6	Non-toxic	–	–	inhibition [9]: Active; Activity [22]: Active; ED50 [23]: 11 mg/kg; Activity [19]: Active
O=C1OC(c2ccccc2)C(=O)N1CCN1CCN(c2ccc([N+](=O)[O-])cc2)CC1 (stereo not given)	–	–	–	–	–	–	–	–	Non-toxic	–	–	–	–	–	inactive	–	Activity [24]: Toxic; Activity [25]: Active
O=C1OC(c2ccccc2)C(=O)N1CCNc1ccc(F)cc1 (stereo not given)	–	–	–	–	–	–	–	–	Non-toxic	–	–	–	–	–	inactive	–	Activity [24]: Toxic; Activity [25]: Active
Cc1ccc(N2CCN(CCN3C(=O)OC(c4ccccc4)C3=O)CC2)cc1 (stereo not given)	–	–	–	Non-toxic	–	–	–	–	Non-toxic	–	–	–	–	–	inactive	inactive	–
